Reference: PubChem BioAssay (NCI)
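Compound exposure: 48 hours, 5 concentrations, 96-well plates. Abbreviation: GI50, concentration required for 50% inhibition of growth. TGI denotes the concentration required for complete inhibition of growth.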

Columns and labels:
Test in all cases: growth of human tumour cells (NCI), 48 h
MCF7 breast = test system: MCF7 breast
OVCAR-3 ovarian = test system: OVCAR-3 ovarian
MALME-3M melanoma = test system: MALME-3M melanoma
SF-268 CNS = test system: SF-268 CNS
HCT-116 colon = test system: HCT-116 colon
CCRF-CEM leukemia = test system: CCRF-CEM leukemia
IGROV1 ovarian = test system: IGROV1 ovarian
MDA-MB-435 = test system: MDA-MB-435
HOP-92 NSCLC = test system: HOP-92 NSCLC
TK-10 renal = test system: TK-10 renal
A498 renal = test system: A498 renal
HOP-62 NSCLC = test system: HOP-62 NSCLC
M14 melanoma = test system: M14 melanoma
HT29 colon = test system: HT29 colon
MOLT-4 leukemia = test system: MOLT-4 leukemia
OVCAR-5 ovarian = test system: OVCAR-5 ovarian
T-47D breast = test system: T-47D breast
NCI-H460 lung = test system: NCI-H460 lung
KM12 colon = test system: KM12 colon
U251 CNS = test system: U251 CNS
DU-145 prostate = test system: DU-145 prostate
ACHN renal = test system: ACHN renal
RPMI-8226 leukemia = test system: RPMI-8226 leukemia
HL-60(TB) leukemia = test system: HL-60(TB) leukemia
LOX IMVI melanoma = test system: LOX IMVI melanoma
SK-MEL-28 melanoma = test system: SK-MEL-28 melanoma
HS 578T breast = test system: HS 578T breast
SK-MEL-2 melanoma = test system: SK-MEL-2 melanoma
SF-539 CNS = test system: SF-539 CNS
UO-31 renal = test system: UO-31 renal
RXF 393 renal = test system: RXF 393 renal
NCI-H522 lung = test system: NCI-H522 lung
NCI/ADR-RES ovarian = test system: NCI/ADR-RES ovarian
SR leukemia = test system: SR leukemia
K-562 leukemia = test system: K-562 leukemia
786-0 renal = test system: 786-0 renal
SN12C renal = test system: SN12C renal
PC-3 prostate = test system: PC-3 prostate
HCT-15 colon = test system: HCT-15 colon
SNB-75 CNS = test system: SNB-75 CNS
OVCAR-4 ovarian = test system: OVCAR-4 ovarian
SW-620 colon = test system: SW-620 colon
SNB-19 CNS = test system: SNB-19 CNS
UACC-62 melanoma = test system: UACC-62 melanoma
SF-295 CNS = test system: SF-295 CNS
SK-MEL-5 melanoma = test system: SK-MEL-5 melanoma
HCC-2998 colon = test system: HCC-2998 colon
NCI-H226 lung = test system: NCI-H226 lung
NCI-H23 lung = test system: NCI-H23 lung
COLO 205 colon = test system: COLO 205 colon
BT-549 breast = test system: BT-549 breast
SK-OV-3 ovarian = test system: SK-OV-3 ovarian
A549 NSCLC = test system: A549 NSCLC
UACC-257 melanoma = test system: UACC-257 melanoma
OVCAR-8 ovarian = test system: OVCAR-8 ovarian
MDA-MB-231 breast = test system: MDA-MB-231 breast

## Cc1ccc(S(=O)(=O)Oc2ccc3c4c(c(=O)oc3c2)CCCCCC4)cc1
MCF7 breast
  GI50: > 100 µM
  TGI: > 100 µM
OVCAR-3 ovarian
  GI50: > 100 µM
  TGI: > 100 µM
MALME-3M melanoma
  GI50: > 100 µM
  TGI: > 100 µM
SF-268 CNS
  GI50: > 100 µM
  TGI: > 100 µM
HCT-116 colon
  GI50: 8.04 µM
  TGI: > 100 µM
CCRF-CEM leukemia
  GI50: 8.92 µM
  TGI: > 100 µM
IGROV1 ovarian
  GI50: > 100 µM
  TGI: > 100 µM
MDA-MB-435
  GI50: > 100 µM
  TGI: > 100 µM
HOP-92 NSCLC
  GI50: 1.34 µM
  TGI: > 100 µM
TK-10 renal
  GI50: > 100 µM
  TGI: > 100 µM
A498 renal
  GI50: 4.43 µM
  TGI: > 100 µM
HOP-62 NSCLC
  GI50: > 100 µM
  TGI: > 100 µM
M14 melanoma
  GI50: > 100 µM
  TGI: > 100 µM
HT29 colon
  GI50: 0.531 µM
  TGI: > 100 µM
MOLT-4 leukemia
  GI50: 9.57 µM
  TGI: > 100 µM
OVCAR-5 ovarian
  GI50: > 100 µM
  TGI: > 100 µM
T-47D breast
  GI50: 5.05 µM
  TGI: > 100 µM
NCI-H460 lung
  GI50: > 100 µM
  TGI: > 100 µM
KM12 colon
  GI50: 4.78 µM
  TGI: > 100 µM
U251 CNS
  GI50: > 100 µM
  TGI: > 100 µM
DU-145 prostate
  GI50: > 100 µM
  TGI: > 100 µM
ACHN renal
  GI50: > 100 µM
  TGI: > 100 µM
RPMI-8226 leukemia
  GI50: 2.33 µM
  TGI: > 100 µM
HL-60(TB) leukemia
  GI50: 7.17 µM
  TGI: > 100 µM
LOX IMVI melanoma
  GI50: > 100 µM
  TGI: > 100 µM
SK-MEL-28 melanoma
  GI50: > 100 µM
  TGI: > 100 µM
HS 578T breast
  GI50: > 100 µM
  TGI: > 100 µM
SK-MEL-2 melanoma
  GI50: 75 µM
  TGI: > 100 µM
SF-539 CNS
  GI50: > 100 µM
  TGI: > 100 µM
UO-31 renal
  GI50: 27.3 µM
  TGI: > 100 µM
RXF 393 renal
  GI50: > 100 µM
  TGI: > 100 µM
NCI-H522 lung
  GI50: > 100 µM
  TGI: > 100 µM
NCI/ADR-RES ovarian
  GI50: 5.08 µM
  TGI: > 100 µM
SR leukemia
  GI50: 5.66 µM
  TGI: > 100 µM
K-562 leukemia
  GI50: 3.88 µM
  TGI: > 100 µM
786-0 renal
  GI50: > 100 µM
  TGI: > 100 µM
SN12C renal
  GI50: > 100 µM
  TGI: > 100 µM
PC-3 prostate
  GI50: 5.97 µM
  TGI: > 100 µM
HCT-15 colon
  GI50: 3.16 µM
  TGI: > 100 µM
SNB-75 CNS
  GI50: > 100 µM
  TGI: > 100 µM
OVCAR-4 ovarian
  GI50: > 100 µM
  TGI: > 100 µM
SW-620 colon
  GI50: 2.76 µM
  TGI: > 100 µM
SNB-19 CNS
  GI50: > 100 µM
  TGI: > 100 µM
UACC-62 melanoma
  GI50: > 100 µM
  TGI: > 100 µM
SF-295 CNS
  GI50: > 100 µM
  TGI: > 100 µM
SK-MEL-5 melanoma
  GI50: 4.45 µM
  TGI: > 100 µM
HCC-2998 colon
  GI50: > 100 µM
  TGI: > 100 µM
NCI-H226 lung
  GI50: 8.31 µM
  TGI: > 100 µM
NCI-H23 lung
  GI50: > 100 µM
  TGI: > 100 µM
COLO 205 colon
  GI50: 2.92 µM
  TGI: > 100 µM
BT-549 breast
  GI50: > 100 µM
  TGI: > 100 µM
SK-OV-3 ovarian
  GI50: > 100 µM
  TGI: > 100 µM
A549 NSCLC
  GI50: > 100 µM
  TGI: > 100 µM
UACC-257 melanoma
  GI50: 8.7 µM
  TGI: > 100 µM
OVCAR-8 ovarian
  GI50: > 100 µM
  TGI: > 100 µM
MDA-MB-231 breast
  GI50: > 100 µM
  TGI: > 100 µM
